Measurements taken from ChEMBL document CHEMBL1149487, “A structure-guided approach to an orthogonal estrogen-receptor-based gene switch activated by ligands suitable for in vivo studies” (J Med Chem, 2006).
The source made the active and inactive calls. The rule behind the calls is not given here.

Legend:
[1] = Cmax in BALB/c mouse at 4 mg/kg, ip; format: ADME, organism-based; set-up: dose 4 mg/kg, route intraperitoneal; details: in vivo
[2] = target: T1, Estrogen receptor (Homo sapiens, UniProt P03372)
T1 sequence (P03372 whole entry): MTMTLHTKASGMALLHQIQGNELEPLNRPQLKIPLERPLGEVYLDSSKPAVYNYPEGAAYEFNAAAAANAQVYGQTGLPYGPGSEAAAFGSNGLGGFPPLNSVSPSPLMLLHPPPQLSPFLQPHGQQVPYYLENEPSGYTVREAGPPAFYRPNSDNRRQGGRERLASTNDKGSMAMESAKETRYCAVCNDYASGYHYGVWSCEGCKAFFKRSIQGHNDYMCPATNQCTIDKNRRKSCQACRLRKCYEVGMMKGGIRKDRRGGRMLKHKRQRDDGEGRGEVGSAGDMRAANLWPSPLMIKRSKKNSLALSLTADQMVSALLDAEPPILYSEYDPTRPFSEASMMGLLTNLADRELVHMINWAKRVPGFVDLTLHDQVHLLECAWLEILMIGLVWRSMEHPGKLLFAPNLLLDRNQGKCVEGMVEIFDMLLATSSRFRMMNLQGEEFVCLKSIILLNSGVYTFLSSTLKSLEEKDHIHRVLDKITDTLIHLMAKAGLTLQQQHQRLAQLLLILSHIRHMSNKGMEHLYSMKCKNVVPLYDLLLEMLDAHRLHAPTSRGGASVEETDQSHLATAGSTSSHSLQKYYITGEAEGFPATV
Description: Binding affinity to human ER alpha

[3] = target: T2, Estrogen receptor beta (Homo sapiens, UniProt Q92731)
[4] = target: Estrogen receptor (Homo sapiens, UniProt P03372, G521R/L384M/M421G)
[5] = target: T2, Estrogen receptor beta; assay: Binding affinity to human ER beta upto 10 uM
[6] = target: T1, Estrogen receptor; assay: Binding affinity to wild type ERalpha
[7] = target: T3, Estrogen receptor (Homo sapiens) (UniProt P03372); format: functional, cell-based; details: HeLa
T3 sequence (whole entry): T1 sequence (P03372 whole entry)

[8] = Clearance in rat at 3 mg/kg, iv; format: ADME, organism-based; set-up: dose 3 mg/kg, route intravenous; details: in vivo
[9] = Terminal half life in rat at 3 mg/kg, iv; format: ADME, organism-based; set-up: dose 3 mg/kg, route intravenous; details: in vivo, read-out: beta t1/2 (converted)

Estrogen receptor (Homo sapiens, UniProt P03372, G521R/L384M/M421G), sequence (P03372 whole entry L384M/M421G/G521R): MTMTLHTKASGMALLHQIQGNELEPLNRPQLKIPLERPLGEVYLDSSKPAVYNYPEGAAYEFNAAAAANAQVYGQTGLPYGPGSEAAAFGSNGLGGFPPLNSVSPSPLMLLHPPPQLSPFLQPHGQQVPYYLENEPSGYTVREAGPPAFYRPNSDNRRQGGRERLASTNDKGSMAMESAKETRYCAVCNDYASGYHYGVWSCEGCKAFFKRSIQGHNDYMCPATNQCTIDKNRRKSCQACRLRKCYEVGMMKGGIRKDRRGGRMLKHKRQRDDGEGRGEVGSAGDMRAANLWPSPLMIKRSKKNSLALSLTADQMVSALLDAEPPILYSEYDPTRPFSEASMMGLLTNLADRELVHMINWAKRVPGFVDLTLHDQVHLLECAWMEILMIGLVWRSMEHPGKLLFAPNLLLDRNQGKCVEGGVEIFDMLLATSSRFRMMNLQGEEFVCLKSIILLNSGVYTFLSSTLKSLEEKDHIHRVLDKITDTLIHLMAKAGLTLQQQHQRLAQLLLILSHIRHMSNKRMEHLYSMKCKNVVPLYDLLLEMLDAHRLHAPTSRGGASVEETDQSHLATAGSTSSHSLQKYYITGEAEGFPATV
T2 sequence (Q92731 whole entry): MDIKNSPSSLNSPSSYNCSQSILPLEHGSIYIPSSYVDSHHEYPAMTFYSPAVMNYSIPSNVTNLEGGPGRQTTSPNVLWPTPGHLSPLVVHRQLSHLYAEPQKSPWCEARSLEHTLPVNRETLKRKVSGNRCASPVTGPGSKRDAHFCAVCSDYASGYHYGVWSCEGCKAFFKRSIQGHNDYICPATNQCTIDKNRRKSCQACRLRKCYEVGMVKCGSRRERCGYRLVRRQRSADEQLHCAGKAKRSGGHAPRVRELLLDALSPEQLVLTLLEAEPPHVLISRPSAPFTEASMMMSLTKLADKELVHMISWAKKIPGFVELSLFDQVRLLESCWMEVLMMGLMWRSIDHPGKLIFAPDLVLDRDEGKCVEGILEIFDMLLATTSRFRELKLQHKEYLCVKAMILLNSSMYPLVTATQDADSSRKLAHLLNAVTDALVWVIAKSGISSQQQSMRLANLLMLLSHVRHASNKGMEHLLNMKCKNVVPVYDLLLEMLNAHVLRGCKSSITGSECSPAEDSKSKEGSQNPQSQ

Compound	IC50 [2]	IC50 [3]	further results
O=C1CCC2(Cc3ccc(Cl)cc3)Cc3cc(O)ccc3C2=C1c1ccc(OCCN2CCCCC2)cc1 (configuration not stated)	1100 nM	2200 nM	Cmax [1]: 500 nM; EC50 [4]: 41 nM
O=C1C=C2c3ccc4[nH]ncc4c3CC2(Cc2ccccc2)CC1 (configuration not stated)	> 10000 nM	> 10000 nM	–
O=C1CCC2(Cc3ccccc3)Cc3c(ccc4[nH]ncc34)C2=C1c1ccc(OCCN2CCCCC2)cc1 (configuration not stated)	620 nM	130 nM	EC50 [4]: 300 nM
CC1=C2c3ccc4[nH]nnc4c3CC2(Cc2ccc(F)cc2)CCC1=O (configuration not stated)	–	–	Activity [5]: inactive
CC1=C2c3ccc(O)cc3CC2(Cc2ccc(Cl)cc2)CCC1=O (configuration not stated)	–	–	IC50 [6]: 6800 nM
O=C1CCC2(Cc3ccccc3)Cc3cc(O)ccc3C2=C1c1ccc(OCCN2CCOCC2)cc1 (configuration not stated)	710 nM	230 nM	–
O=C1CCC2(Cc3ccccc3)Cc3cc(O)ccc3C2=C1c1ccc(OCCN2CCCCC2)cc1 (configuration not stated)	380 nM	180 nM	clearance [8]: 22 mL/min/kg; half-life [9]: 2 h; EC50 [4]: 14 nM
O=C1CCC2(Cc3ccccc3)Cc3cc(O)ccc3C2=C1c1ccc(O)cc1 (configuration not stated)	220 nM	100 nM	clearance [8]: 39 mL/min/kg; half-life [9]: 1.5 h; EC50 [4]: 11 nM
CN(C)CCOc1ccc(C2=C3c4ccc(O)cc4CC3(Cc3ccccc3)CCC2=O)cc1 (configuration not stated)	1200 nM	560 nM	–

The next lines start with results.

IC50 [2]	IC50 [3]	Compound	further results
3400 nM	560 nM	CC1=C2c3ccc4[nH]ncc4c3CC2(Cc2ccccc2F)CCC1=O (configuration not stated)	–
> 10000 nM	5800 nM	CC1=C2c3ccc4nn[nH]c4c3CC2(Cc2ccccc2)CCC1=O (configuration not stated)	–
1500 nM	–	CC1=C2c3ccc(O)cc3CC2(Cc2ccccc2)CCC1=O (configuration not stated)	–
> 10000 nM	1200 nM	CC1=C2c3ccc4[nH]ncc4c3CC2(Cc2ccccc2)CCC1=O (configuration not stated)	Activity [7]: inactive
–	> 10000 nM	CC1=C2c3ccc4nn[nH]c4c3CC2(Cc2ccc(F)cc2)CCC1=O (configuration not stated)	–
> 10000 nM	1600 nM	CC1=C2c3ccc4[nH]ncc4c3CC2(Cc2cccc(F)c2)CCC1=O (configuration not stated)	–
–	> 1000 nM	CC1=C2c3ccc4[nH]ncc4c3CC2(Cc2ccc(F)cc2)CCC1=O (configuration not stated)	–
